# According to patent US12384751B2, “Allosteric activators of the ALPHA1A-adrenergic receptor” (The Cleveland Clinic Foundation, priority 2019, dated 2025):
# pKi: −log10 of the molar value. “Also recorded” adds a separate entry of the source. Like-named read-outs stand apart in the source and are kept apart here.
# How the values were obtained:
# [1] = target: T1, α1B-AR (Homo sapiens, UniProt P35368); assay: Competition binding with [125I]HEAT at α1B-AR
# T1 construct: expressed in transfected cells; host or cells: Rat-1 fibroblast cells
# T1 sequence (P35368 1-520): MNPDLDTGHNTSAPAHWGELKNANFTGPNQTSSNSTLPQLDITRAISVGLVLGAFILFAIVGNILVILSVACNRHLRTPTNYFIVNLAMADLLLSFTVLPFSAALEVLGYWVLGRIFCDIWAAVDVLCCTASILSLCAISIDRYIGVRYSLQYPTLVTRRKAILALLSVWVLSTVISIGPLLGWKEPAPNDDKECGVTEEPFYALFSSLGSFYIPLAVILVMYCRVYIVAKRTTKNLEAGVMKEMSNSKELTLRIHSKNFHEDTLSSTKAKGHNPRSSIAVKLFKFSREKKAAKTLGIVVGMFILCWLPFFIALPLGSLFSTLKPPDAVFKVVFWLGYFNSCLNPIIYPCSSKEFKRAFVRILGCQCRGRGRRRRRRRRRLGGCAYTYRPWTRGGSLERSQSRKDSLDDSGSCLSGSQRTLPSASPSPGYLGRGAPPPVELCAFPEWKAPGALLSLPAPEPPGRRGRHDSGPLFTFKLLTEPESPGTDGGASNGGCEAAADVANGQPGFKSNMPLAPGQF
# Description: Competition binding assays: These compounds were characterized for their ligand binding properties at the α1-AR subtypes. The binding affinities of Compounds 1-10 were determined in a series of competition-binding experiments with the α1-AR-selective antagonist [^125I]HEAT as the radioligand. Assays were performed in duplicate in HEM buffer, in a total assay volume of 1000 μl. Radioligand binding assays are composed of 5 ug of membranes, harvested from Rat-1 fibroblast cells expressing only one of the alpha1-AR subtypes, HEM buffer containing GTP (composed of 20 mM HEPES, pH 7.4, 1.4 mM EGTA, 12.5 mM MgCl2, pH to 7.4), 0.5 mM GTP, 35-80 pM^125I-HEAT, and various doses of norepinephrine or epinephrine and incubated with shaking at 25° C. for 1-2 hours. The above conditions will convert all the conformations of the receptor into a single low affinity site. To show both high and low affinity sites of the receptor (typically seen with GPCR agonists), the GTP is removed from the binding buffer. Nonspecific binding was determined experimentally in the presence of 10^−4 M phentolamine. Unbound radioactivity was separated from membrane-bound radioactivity by filtration through Whatman GF/C filter paper. […] Bound radioactivity remaining on the filters was counted on an ICN gamma counter operating at 79.8% efficiency. Data are analyzed using Graphpad Prism.
# [2] = Blood pressure in APP (London Mutation) AD mice and WT controls; format: in vivo, mouse; settings: 40 mg/kg/bw daily
# [3] = test system: 3×TG Alzheimer's Disease (AD) mouse model; assay: Smart Cage locomotor activity in AD mice; format: in vivo; settings: 48 hours
# [4] = test system: 3×TG Alzheimer's Disease (AD) mouse model; assay: Shortened Barnes Maze in 3×TG AD mice; format: in vivo
# Description: (§1) AD mice were first randomized and sorted into control or treatment groups. […] 14 AD mice from each treatment group received Compound 3 in the drinking water (2.611 mg/kg/bw) to deliver a daily dose near the peak potentiation of the cAMP response in the brain at 10^−8M based upon the PAM assay and pharmacokinetics. This was achieved by adding Compound 3 to the drinking water at 32 uM, assuming the mice drink 6 ml/day, with only 10% of bioavailable drug reaching the brain. The drug was administered in the drinking water for 10 months, starting at age 2 months, then subjected to either different cognitive behavioral tests or electrophysiology at age 12 months to maximize the manifestations of AD symptoms in these mice. Mice are maintained on the drug for the duration of the studies and blinded to the operator.
# Barnes Maze. The Barnes maze is used to assess spatial learning and memory and consists of a white, flat, circular platform elevated above ground with 40 holes, under which one escape box is located. Three visual cues are placed surrounding the maze and their locations in relation to the escape box and remain constant. Two floodlights and four fans above the maze provide aversion. […] At the start of each trial, a mouse is placed in the center of the maze under a holding chamber for 30 seconds. When the chamber is lifted, the mouse is allowed up to 300 seconds to enter the escape box. […] […] The procedure for the memory trials is the same as learning, except the mice are allowed only one attempt to solve the maze each day. Data includes the time to solve, number of errors made, and distance traveled. Errors are defined as when a mouse poked more than three-quarters of its head into any hole other than the appropriate escape hole. Distance traveled is measured using ANY-MAZE software.
# [5] = test system: 3×TG Alzheimer's Disease (AD) mouse model; assay: Tone-induced fear conditioning in 3×TG AD mice; format: in vivo
# Description: as §1
# [6] = target: T2, α1A-AR (Homo sapiens, UniProt P35348); assay: Competition binding with [125I]HEAT at α1A-AR (Rat-1 fibroblast membranes); design: expressed in transfected cells; host or cells: Rat-1 fibroblast cells
# T2 sequence (P35348 1-466): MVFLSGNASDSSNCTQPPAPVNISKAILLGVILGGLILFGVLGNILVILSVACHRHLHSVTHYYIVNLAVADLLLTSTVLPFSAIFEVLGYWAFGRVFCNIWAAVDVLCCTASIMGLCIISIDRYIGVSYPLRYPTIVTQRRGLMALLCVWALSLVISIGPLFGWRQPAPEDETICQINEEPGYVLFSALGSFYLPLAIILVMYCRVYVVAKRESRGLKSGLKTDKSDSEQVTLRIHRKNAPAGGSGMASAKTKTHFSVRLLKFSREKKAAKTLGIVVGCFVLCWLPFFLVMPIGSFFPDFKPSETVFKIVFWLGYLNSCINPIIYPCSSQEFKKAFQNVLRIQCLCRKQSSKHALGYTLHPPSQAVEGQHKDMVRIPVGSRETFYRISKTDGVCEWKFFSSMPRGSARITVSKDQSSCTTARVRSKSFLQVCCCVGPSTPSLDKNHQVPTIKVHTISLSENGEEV
# Description: Competition binding assays: […] Assays were performed in duplicate in HEM buffer, in a total assay volume of 1000 μl. […] The above conditions will convert all the conformations of the receptor into a single low affinity site. To show both high and low affinity sites of the receptor (typically seen with GPCR agonists), the GTP is removed from the binding buffer. Nonspecific binding was determined experimentally in the presence of 10^−4 M phentolamine. Unbound radioactivity was separated from membrane-bound radioactivity by filtration through Whatman GF/C filter paper. Filters are washed five times with 5 ml of cold HEM buffer containing 0.5 mMGTP (if added to the binding buffer but not if it was not added to the binding buffer). Bound radioactivity remaining on the filters was counted on an ICN gamma counter operating at 79.8% efficiency. Data are analyzed using Graphpad Prism.
smiles,measurement,setting,value
"CC(C)Cc1c(OCC2=NCCN2)cccc1N(C)S(C)(=O)=O [Compound 3, N-[3-(4,5-Dihydro-1H-imidazol-2-ylmethoxy)-2-isobutyl-phenyl]-N-methyl-methanesulfonamide]",specific binding at the α1B-AR,[1],"little, if any, specific binding; also recorded: no affinity"
same,"blood pressure, treated vs placebo",[2],no changes in blood pressure
same,locomotion assessed by amount of active time,[3],little effect on locomotion
same,locomotion assessed by velocity,[3],little effect on locomotion
same,"time to find the escape hole, day 5 memory test","[4]; AD mice, approached significance",decreased the time to find the escape hole
same,finding the correct escape hole (number of head pokes),"[4]; female AD mice, day 5 probe",increase the ability of female AD mice to find the correct escape hole
same,latency to the escape hole during training period,"[4]; male AD mice, 5 day training",significantly decrease the latency
same,velocity after tone (freezing),[5]; female AD mice,slower movement speed
same,active time after tone (freezing),[5]; male AD mice,less active time
same,binding behaviour against radiolabeled antagonist 125I-HEAT (full inhibition; competitive or allosteric),[6],cannot fully inhibit
same,pKi,"[6]; 0.5 mM GTP in binding buffer, competition with 125I-HEAT, read-out: affinity for the α1A-AR",~7.00
same,pKi,"[6]; GTP removed from binding buffer, read-out: high affinity site",12.00
